Source: patent US9993494B2, “Compositions and methods for treating fibrotic disease” (eFFECTOR Therapeutics, Inc., priority 2014, dated 2018)

Tested on: normal human lung fibroblasts
Test: Ribosomal profiling: translational efficiency in TGFβ-treated fibroblasts
Format: cell-based
Description: Ribosomal profiling allows for measurement of changes in transcription and translation on a genome-wide basis accompanying TGFβ-dependent transformation of fibroblasts to myofibroblasts. Ribosomal profiles of the TGFβ-treated fibroblasts from Example 1 (about 6×10^6 cells/10 cm plate) were prepared and analyzed for changes in translational efficiencies with respect to potential disease-associated cellular changes accompanying this TGFβ-induced transformation.
Briefly, cells were washed with cold PBS supplemented with cycloheximide and lysed with 1× mammalian cell lysis buffer for 10 minutes on ice. Lysates were clarified by centrifugation for 10 minutes at 14,000 rpm and supernatants were collected. Cell lysates were processed to generate ribosomal protected fragments and total mRNA according to the instructions included with the ARTseq Ribosome Profiling Kit (Illumina, San Diego, Calif.). Sequencing of total RNA (RNA) and of ribosome-protected fragments of RNA (RPF) was carried out using RNA-Seq methodology according to the manufacturer's instructions (Illumina). To analyze the ribosomal profiles, RNA-Seq reads were processed with tools from the FASTX-Toolkit (fastq_quality_trimmer, fastx_clipper and fastx_trimmer). Unprocessed and processed reads were evaluated for a variety of quality measures using FastQC, and processed reads were mapped to the human genome using TopHat (see, e.g., Trapnell et al., Bioinformatics 25:1105, 2009). Gene-by-gene assessment of the number of fragments strictly and uniquely mapping to the coding region of each gene was conducted using HTSeq-count, a component of the HTSeq package. […] Genes with low counts in either RPF or RNA were excluded from differential analyses. Pathway and network analyses of differential data were conducted using Ingenuity Pathway Analysis (IPA).

Question: How did the “change in translational profile of CTPS caused by TGFβ” value (ENSG00000171793, Control vs. TGFβ) turn out when TGFβ was run?
Answer: D (D = <1.0 to 1.5)

Question: And the “Log2 TE RPS21” value (ENSG00000171858, 5 replicates)?
Answer: 1.846

Question: And the “Log2 TE RPS7” value (ENSG00000171863, 5 replicates)?
Answer: 1.549

Question: What about the “Log2 TE QARS” value (ENSG00000172053, 5 replicates) of the same substance?
Answer: 1.362

Question: And the “change in translational profile of QARS caused by TGFβ” value (ENSG00000172053, Control vs. TGFβ)?
Answer: D (D = <1.0 to 1.5)

Question: And the “Log2 TE RPL38” value (ENSG00000172809, 5 replicates)?
Answer: 1.353

Question: And the “change in translational profile of RPL38 caused by TGFβ” value (ENSG00000172809, Control vs. TGFβ)?
Answer: E (E = <1.5 to 2.5)

Question: And the “Log2 TE HSPB7” value (ENSG00000173641, 5 replicates)?
Answer: 1.292

Question: And the “change in translational profile of MRPL45 caused by TGFβ” value (ENSG00000174100, Control vs. TGFβ)?
Answer: D (D = <1.0 to 1.5)

Question: And the “Log2 TE EVX2” value (ENSG00000174279, 5 replicates)?
Answer: 2.887

Question: What about the “Log2 TE RPL4” value (ENSG00000174444, 5 replicates) of the same substance?
Answer: 1.688

Question: And the “change in translational profile of RPL4 caused by TGFβ” value (ENSG00000174444, Control vs. TGFβ)?
Answer: E (E = <1.5 to 2.5)

Question: And the “Log2 TE RPL15” value (ENSG00000174748, 5 replicates)?
Answer: 1.254

Question: And the “change in translational profile of RPL15 caused by TGFβ” value (ENSG00000174748, Control vs. TGFβ)?
Answer: D (D = <1.0 to 1.5)

Question: And the “Log2 TE DES” value (ENSG00000175084, 5 replicates)?
Answer: 1.204

Question: And the “change in translational profile of DES caused by TGFβ” value (ENSG00000175084, Control vs. TGFβ)?
Answer: E (E = <1.5 to 2.5)

Question: What about the “Log2 TE CST6” value (ENSG00000175315, 5 replicates) of the same substance?
Answer: 1.241

Question: And the “Log2 TE EIF3F” value (ENSG00000175390, 5 replicates)?
Answer: 1.29

Question: And the “change in translational profile of EIF3F caused by TGFβ” value (ENSG00000175390, Control vs. TGFβ)?
Answer: D (D = <1.0 to 1.5)

Question: What about the “Log2 TE CLCF1” value (ENSG00000175505, 5 replicates) of the same substance?
Answer: 1.594

Question: What about the “change in translational profile of CLCF1 caused by TGFβ” value (ENSG00000175505, Control vs. TGFβ) of the same substance?
Answer: E (E = <1.5 to 2.5)

Question: And the “Log2 TE AMIGO3” value (ENSG00000176020, 5 replicates)?
Answer: −1.314

Question: And the “change in translational profile of AMIGO3 caused by TGFβ” value (ENSG00000176020, Control vs. TGFβ)?
Answer: C (C = <−1.0 to −1.5)

Question: And the “Log2 TE C14orf49” value (ENSG00000176438, 5 replicates)?
Answer: −1.044

Question: And the “change in translational profile of C14orf49 caused by TGFβ” value (ENSG00000176438, Control vs. TGFβ)?
Answer: C (C = <−1.0 to −1.5)

Question: What about the “Log2 TE RPLP2” value (ENSG00000177600, 5 replicates) of the same substance?
Answer: 1.694

Question: What about the “change in translational profile of RPLP2 caused by TGFβ” value (ENSG00000177600, Control vs. TGFβ) of the same substance?
Answer: E (E = <1.5 to 2.5)

Question: What about the “Log2 TE RPS27” value (ENSG00000177954, 5 replicates) of the same substance?
Answer: 1.429

Question: And the “change in translational profile of IMPDH2 caused by TGFβ” value (ENSG00000178035, Control vs. TGFβ)?
Answer: D (D = <1.0 to 1.5)

Question: And the “Log2 TE DNAJC22” value (ENSG00000178401, 5 replicates)?
Answer: −1.189

Question: What about the “change in translational profile of DNAJC22 caused by TGFβ” value (ENSG00000178401, Control vs. TGFβ) of the same substance?
Answer: B (B = <−1.5 to −2.5)

Question: What about the “Log2 TE YOD1” value (ENSG00000180667, 5 replicates) of the same substance?
Answer: 1.146

Question: What about the “Log2 TE PGBD4” value (ENSG00000182405, 5 replicates) of the same substance?
Answer: 1.055

Question: And the “Log2 TE RPL35A” value (ENSG00000182899, 5 replicates)?
Answer: 1.627

Question: And the “change in translational profile of RPL35A caused by TGFβ” value (ENSG00000182899, Control vs. TGFβ)?
Answer: E (E = <1.5 to 2.5)

Question: What about the “change in translational profile of LENG9 caused by TGFβ” value (ENSG00000182909, Control vs. TGFβ) of the same substance?
Answer: D (D = <1.0 to 1.5)

Question: And the “change in translational profile of C22orf32 caused by TGFβ” value (ENSG00000183172, Control vs. TGFβ)?
Answer: D (D = <1.0 to 1.5)

Question: What about the “Log2 TE CHEK2” value (ENSG00000183765, 5 replicates) of the same substance?
Answer: −1.457

Question: What about the “change in translational profile of NPW caused by TGFβ” value (ENSG00000183971, Control vs. TGFβ) of the same substance?
Answer: D (D = <1.0 to 1.5)

Question: And the “Log2 TE ALDH1A3” value (ENSG00000184254, 5 replicates)?
Answer: −1.327

Question: And the “Log2 TE PDE4B” value (ENSG00000184588, 5 replicates)?
Answer: −2.021

Question: And the “change in translational profile of PDE4B caused by TGFβ” value (ENSG00000184588, Control vs. TGFβ)?
Answer: B (B = <−1.5 to −2.5)

Question: And the “Log2 TE CDCA2” value (ENSG00000184661, 5 replicates)?
Answer: −1.573

Question: And the “Log2 TE 5-Sep” value (ENSG00000184702, 5 replicates)?
Answer: 1.209

Question: And the “change in translational profile of ROBO2 caused by TGFβ” value (ENSG00000185008, Control vs. TGFβ)?
Answer: C (C = <−1.0 to −1.5)

Question: What about the “Log2 TE SEMA4B” value (ENSG00000185033, 5 replicates) of the same substance?
Answer: −1.413

Question: What about the “Log2 TE SH3BGR” value (ENSG00000185437, 5 replicates) of the same substance?
Answer: 1.121

Question: What about the “change in translational profile of PTCH1 caused by TGFβ” value (ENSG00000185920, Control vs. TGFβ) of the same substance?
Answer: D (D = <1.0 to 1.5)

Question: What about the “Log2 TE POLR1D” value (ENSG00000186184, 5 replicates) of the same substance?
Answer: 1.23

Question: What about the “change in translational profile of POLR1D caused by TGFβ” value (ENSG00000186184, Control vs. TGFβ) of the same substance?
Answer: E (E = <1.5 to 2.5)

Question: And the “Log2 TE RPS23” value (ENSG00000186468, 5 replicates)?
Answer: 1.302

Question: And the “Log2 TE DYNC2H1” value (ENSG00000187240, 5 replicates)?
Answer: −1.228

Question: And the “change in translational profile of DYNC2H1 caused by TGFβ” value (ENSG00000187240, Control vs. TGFβ)?
Answer: B (B = <−1.5 to −2.5)

Question: What about the “Log2 TE TET3” value (ENSG00000187605, 5 replicates) of the same substance?
Answer: 1.541

Question: And the “Log2 TE ZSCAN23” value (ENSG00000187987, 5 replicates)?
Answer: −1.048

Question: And the “Log2 TE RPL14” value (ENSG00000188846, 5 replicates)?
Answer: 1.745

Question: And the “change in translational profile of RPL14 caused by TGFβ” value (ENSG00000188846, Control vs. TGFβ)?
Answer: E (E = <1.5 to 2.5)

Question: And the “change in translational profile of LRRK2 caused by TGFβ” value (ENSG00000188906, Control vs. TGFβ)?
Answer: C (C = <−1.0 to −1.5)

Question: What about the “Log2 TE ZNF33A” value (ENSG00000189180, 5 replicates) of the same substance?
Answer: −1.058
